Values after ≈ are worked out from the molar mass of the structure shown. Like-named read-outs stand apart in the source and are kept apart here.
Legend:
Type in all cases: cell-based
Edwardsiella tarda = experiment: MIC, microdilution in 96-well plates
In short: (§1)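 Determined via CLSI-guided microdilution: triplicate two-fold compound gradients, a DMSO vehicle column, and cultures seeded 1:10000 in LB from growing cells. Incubation lasted 16-18 hours at 37° C. under shaking, with MIC called as the lowest concentration lacking visible growth.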

E. coli BW25113 = experiment: MIC, microdilution in 96-well plates; conditions: Escherichia coli, read-out: MIC
In short: as §1

Shigella flexneri = experiment: MIC, 20-strain panel
In short: as §1

[1] = tested on: Salmonella enterica subsp. enterica typhimurium; experiment: MIC, 20-strain panel
In short: as §1

[2] = tested on: Staphylococcus epidermidis; experiment: MIC, 20-strain panel
In short: as §1

[3] = tested on: Staphylococcus saprophyticus subsp. saprophyticus; experiment: MIC, 20-strain panel
In short: as §1

[4] = tested on: Staphylococcus aureus subsp. aureus; experiment: MIC, 20-strain panel; conditions: read-out: MIC
In short: as §1

E. coli JW5503 (deltolC) = experiment: MIC, 20-strain panel; conditions: Escherichia coli
In short: as §1

[5] = tested on: Klebsiella pneumoniae subsp. pneumoniae; experiment: MIC, 20-strain panel
In short: as §1

Streptococcus pyogenes = experiment: MIC, 20-strain panel
In short: as §1

Streptococcus agalactiae = experiment: MIC, 20-strain panel
In short: as §1

E. coli MG1655 = experiment: MIC, 20-strain panel; conditions: Escherichia coli, read-out: MIC
In short: as §1

[6] = Salmonella enterica subsp. enterica Typhimurium
[7] = Staphylococcus aureus subsp. aureus
[8] = Klebsiella pneumoniae subsp. pneumoniae
[9] = F: Salmonella enterica subsp. enterica Typhimurium
[10] = H: Staphylococcus aureus subsp. aureus
[11] = E: Klebsiella pneumoniae subsp. pneumoniae

SMILES	MIC (Edwardsiella tarda)	MIC (E. coli BW25113; BW25113, E. coli BW25113)	MIC (Shigella flexneri)	MIC [1, 6]	MIC [2]	MIC [3]	MIC [4, 7]	MIC (E. coli JW5503 (deltolC); E. coli JW5503 (deltolC))	MIC [5, 8]	MIC (Streptococcus pyogenes)	MIC (Streptococcus agalactiae)	MIC (E. coli MG1655; MG1655, E. coli MG1655)	MIC (Edwardsiella tarda; D: Edwardsiella tarda)	MIC (E. coli BW25113; BW25113, B: E. coli BW25113)	MIC (Shigella flexneri; G: Shigella flexneri)	MIC [1, 9]	MIC [4, 10]	MIC (E. coli JW5503 (deltolC); C: E. coli JW5503 (deltolC))	MIC [5, 11]	MIC (E. coli MG1655; MG1655, A: E. coli MG1655)
Cc1ccncc1S(=O)(=O)N[C@@H]1CCN(Cc2ccc(OC3CC3)cc2)C1 [Compound 153]	> 8 µg/mL	> 8 µg/mL	> 8 µg/mL	> 8 µg/mL	> 8 µg/mL	> 8 µg/mL	> 8 µg/mL	8 µg/mL (≈ 20.6 µM)	> 8 µg/mL	> 8 µg/mL	> 8 µg/mL	> 8 µg/mL	–	–	–	–	–	–	–	–
COc1cc(CN2CC[C@@H](NS(=O)(=O)c3cccc(C(F)(F)F)c3)C2)ccc1OC(C)C [Compound 42]	–	–	–	–	> 8 µg/mL	> 8 µg/mL	–	–	–	> 8 µg/mL	> 8 µg/mL	–	> 8 µg/mL	> 8 µg/mL	> 8 µg/mL	> 8 µg/mL	> 8 µg/mL	> 8 µg/mL	> 8 µg/mL	> 8 µg/mL
O=S(=O)(N[C@@H]1CCN(Cc2ccc(-c3ccccc3)cc2)C1)c1cc(Cl)cc(C(F)(F)F)c1 [Compound 110]	–	–	–	–	4 µg/mL (≈ 8.08 µM)	> 8 µg/mL	–	–	–	8 µg/mL (≈ 16.2 µM)	> 8 µg/mL	–	> 8 µg/mL	> 8 µg/mL	> 8 µg/mL	> 8 µg/mL	> 8 µg/mL	> 8 µg/mL	> 8 µg/mL	> 8 µg/mL
CC(C)Oc1ccc(CN2CC[C@@H](NS(=O)(=O)c3ccc(Cl)c(C#N)c3)C2)cc1 [Compound 118]	–	–	–	–	> 8 µg/mL	> 8 µg/mL	–	–	–	> 8 µg/mL	> 8 µg/mL	–	> 8 µg/mL	> 8 µg/mL	> 8 µg/mL	> 8 µg/mL	> 8 µg/mL	> 8 µg/mL	> 8 µg/mL	> 8 µg/mL
O=S(=O)(N[C@@H]1CCN(Cc2ccc(OC3CC3)cc2)C1)c1cncc(F)c1 [Compound 154]	> 8 µg/mL	> 8 µg/mL	> 8 µg/mL	> 8 µg/mL	> 8 µg/mL	> 8 µg/mL	> 8 µg/mL	> 8 µg/mL	> 8 µg/mL	> 8 µg/mL	> 8 µg/mL	> 8 µg/mL	–	–	–	–	–	–	–	–
CC(=O)c1cc(S(=O)(=O)N[C@@H]2CCN(Cc3ccc(OC(C)C)cc3)C2)ccc1C [Compound 1]	–	–	–	–	> 8 µg/mL	> 8 µg/mL	–	–	–	> 8 µg/mL	> 8 µg/mL	–	> 8 µg/mL	> 8 µg/mL	> 8 µg/mL	> 8 µg/mL	> 8 µg/mL	> 8 µg/mL	> 8 µg/mL	> 8 µg/mL
Cc1ccc(S(=O)(=O)N[C@@H]2CCN(Cc3ccc(OC4CC4)cc3)C2)cn1 [Compound 175]	> 8 µg/mL	> 8 µg/mL	> 8 µg/mL	> 8 µg/mL	> 8 µg/mL	> 8 µg/mL	> 8 µg/mL	> 8 µg/mL	> 8 µg/mL	> 8 µg/mL	> 8 µg/mL	> 8 µg/mL	–	–	–	–	–	–	–	–
CS(=O)(=O)c1ccc(Cl)c(S(=O)(=O)N[C@@H]2CCN(Cc3ccc(-c4ccccc4)cc3)C2)c1 [Compound 142]	> 8 µg/mL	> 8 µg/mL	> 8 µg/mL	> 8 µg/mL	> 8 µg/mL	> 8 µg/mL	> 8 µg/mL	2 µg/mL (≈ 3.96 µM)	> 8 µg/mL	> 8 µg/mL	> 8 µg/mL	> 8 µg/mL	–	–	–	–	–	–	–	–
N#Cc1cccc(S(=O)(=O)N[C@@H]2CCN(Cc3ccc(-c4ccc(Cl)cc4)cc3)C2)c1 [Compound 101]	–	–	–	–	8 µg/mL (≈ 17.7 µM)	> 8 µg/mL	–	–	–	> 8 µg/mL	> 8 µg/mL	–	> 8 µg/mL	> 8 µg/mL	> 8 µg/mL	> 8 µg/mL	~8 µg/mL (≈ 17.7 µM)	2 µg/mL (≈ 4.42 µM)	> 8 µg/mL	> 8 µg/mL
Cc1ccc(S(=O)(=O)N[C@@H]2CCN(Cc3ccc(OC(C)C)cc3)C2)cc1C#N [Compound 161]	> 8 µg/mL	> 8 µg/mL	> 8 µg/mL	> 8 µg/mL	> 8 µg/mL	> 8 µg/mL	> 8 µg/mL	> 8 µg/mL	> 8 µg/mL	> 8 µg/mL	> 8 µg/mL	> 8 µg/mL	–	–	–	–	–	–	–	–
CC(C)Oc1ccc(CN2CC[C@@H](NS(=O)(=O)c3ccc(C#N)nc3)C2)cc1 [Compound 138]	> 8 µg/mL	> 8 µg/mL	> 8 µg/mL	> 8 µg/mL	> 8 µg/mL	> 8 µg/mL	> 8 µg/mL	> 8 µg/mL	> 8 µg/mL	> 8 µg/mL	> 8 µg/mL	> 8 µg/mL	–	–	–	–	–	–	–	–

Reference: patent US10253039B2, “Inhibitors of bacterial DNA gyrase with efficacy against gram-negative bacteria” (priority 2014, dated 2019)
